These results are taken from patent US9346815B2, “5-chloro-2-difluoromethoxyphenyl pyrazolopyrimidine compounds, compositions and methods of use thereof” (Genentech, Inc., priority 2014, dated 2016).

The Ki is a measure of affinity in units of concentration, obtained from inhibition or displacement.

The test system of assay [1] is JAK1-dependent STAT6 phosphorylation downstream of IL-13 stimulation in TF-1 human erythroleukemia cells. The assay can be described thus: JAK1 pathway assay in TF-1 cells (IL-13-pSTAT6, MSD). The assay is classed as cell-based. As to conditions: Homo sapiens, TF-1, TF-1 cells, read-out: IL13-pSTAT6 EC50_TF-1. The method, then:
JAK1 Pathway Assay in Cell Lines was Carried Out as Follows:
Inhibitor potency (EC50) was determined in cell-based assays designed to measure JAK1 dependent STAT phosphorylation.
In one assay approach, TF-1 human erythroleukemia cells obtained from the American Type Culture Collection (ATCC; Manassas, Va.) were used to measure JAK1-dependent STAT6 phosphorylation downstream of IL-13 stimulation. Prior to use in the assays, TF-1 cells were starved of GM-CSF overnight in OptiMEM medium (Life Technologies, Grand Island, N.Y.) supplemented with 0.5% charcoal/dextran stripped fetal bovine serum (FBS), 0.1 mM non-essential amino acids (NEAA), and 1 mM sodium pyruvate. The assays were run in 384-well plates in serum-free OptiMEM medium using 300,000 cells per well. In a second assay approach, BEAS-2B human bronchial epithelial cells obtained from ATCC were plated at 100,000 cells per well of a 96-well plate one day prior to the experiment. The BEAS-2B assay was run in complete growth medium (bronchial epithelial basal medium plus bulletkit; Lonza; Basel, Switzerland).
Test compounds were serially diluted 1:2 in DMSO and then diluted 1:50 in medium just before use. Diluted compounds were added to the cells, for a final DMSO concentration of 0.2%, and incubated for 30 min (for the TF-1 assay) or 1 hr (for the BEAS-2B assay) at 37° C. Then, cells were stimulated with human recombinant cytokine at their respective EC90 concentrations, as previously determined for each individual lot. Cells were stimulated with IL-13 (R&D Systems, Minneapolis, Minn.) for 15 min at 37° C. The TF-1 cell reactions were stopped by the direct addition of 10× lysis buffer (Cell Signaling Technologies, Danvers, Mass.), whereas the BEAS-2B cell incubations were halted by the removal of medium and addition of 1× lysis buffer. The resultant samples were frozen in the plates at −80° C. Compound mediated inhibition of STAT6 phosphorylation was measured in the cell lysates using MesoScale Discovery (MSD) technology (Gaithersburg, Md.).

The target in assay [2] is isolated recombinant JAK1 kinase domain (Homo sapiens (Human), UniProt P23458). The assay is described as follows: JAK1 enzyme assay (Caliper LabChip, peptide phosphorylation). The class given is biochemical. Conditions: isolated recombinant JAK1 kinase domain, 25 μM ATP.
isolated recombinant JAK1 kinase domain, sequence (P23458 875-1153): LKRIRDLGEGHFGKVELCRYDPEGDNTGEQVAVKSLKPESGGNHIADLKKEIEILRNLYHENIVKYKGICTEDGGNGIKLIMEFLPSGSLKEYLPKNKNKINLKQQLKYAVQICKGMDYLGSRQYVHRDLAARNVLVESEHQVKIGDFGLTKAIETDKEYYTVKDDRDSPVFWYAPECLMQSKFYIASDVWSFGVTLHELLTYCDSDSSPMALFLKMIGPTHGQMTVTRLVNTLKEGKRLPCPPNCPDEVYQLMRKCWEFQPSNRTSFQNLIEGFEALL
In assay [3] the target is isolated recombinant JAK2 kinase domain (Homo sapiens (Human), UniProt O60674). The assay can be described thus: JAK2 enzyme assay (Caliper LabChip, peptide phosphorylation). The assay is classed as biochemical. As to conditions: 25 μM ATP.
isolated recombinant JAK2 kinase domain, sequence (O60674 849-1124): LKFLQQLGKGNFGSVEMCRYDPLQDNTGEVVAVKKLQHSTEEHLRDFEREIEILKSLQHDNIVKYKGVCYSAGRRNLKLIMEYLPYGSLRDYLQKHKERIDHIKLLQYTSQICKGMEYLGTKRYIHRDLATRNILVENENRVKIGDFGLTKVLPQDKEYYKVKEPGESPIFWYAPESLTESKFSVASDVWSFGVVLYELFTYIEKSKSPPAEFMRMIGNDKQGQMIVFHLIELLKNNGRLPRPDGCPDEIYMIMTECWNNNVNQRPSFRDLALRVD

Counter-ions that a name gives are not always drawn.

Turning to `CC1(CN2C[C@@H]3CN(C(=O)Cn4cc(NC(=O)c5cnn6cccnc56)c(-c5cc(Cl)ccc5OC(F)F)n4)C[C@@H]3C2)COC1` [Example 39, N-[1-[2-[(3aR,6aS)-2-[(3-methyloxetan-3-yl)methyl]-1,3,3a,4,6,6a-hexahydropyrrolo[3,4-c]pyrrol-5-yl]-2-oxo-ethyl]-3-[5-chloro-2-(difluoromethoxy)phenyl]pyrazol-4-yl]pyrazolo[1,5-a]pyrimidine-3-carboxamide], the EC50 in assay [1] was 6.6 nM. Also, the Ki worked out at 0.55 nM in assay [2] and 0.87 nM in assay [3].

Consider `CN1C[C@@H]2CN(C(=O)Cn3cc(NC(=O)c4cnn5ccc(N)nc45)c(-c4cc(Cl)ccc4OC(F)F)n3)C[C@@H]2C1` [Example 7, 5-Amino-pyrazolo[1,5-a]pyrimidine-3-carboxylic acid {3-(5-chloro-2-difluoromethoxy-phenyl)-1-[2-((3aR,6aS)-5-methyl-hexahydro-pyrrolo[3,4-c]pyrrol-2-yl)-2-oxo-ethyl]-1H-pyrazol-4-yl}-amide hydrochloride], for which the EC50 in assay [1] is 1040 nM. Also, the Ki in assay [2] was 1.1 nM; in assay [3], 0.96 nM.

Regarding `CN1CCN(CCCN2CCC(n3cc(NC(=O)c4cnn5cccnc45)c(-c4cc(Cl)ccc4OC(F)F)n3)CC2)C1=O` [Example 154, N-[3-[5-chloro-2-(difluoromethoxy)phenyl]-1-[1-[3-(3-methyl-2-oxo-imidazolidin-1-yl)propyl]-4-piperidyl]pyrazol-4-yl]pyrazolo[1,5-a]pyrimidine-3-carboxamide], the EC50 in assay [1] stood at 2.7 nM. The inhibition constant Ki in assay [2] came to 1.42 nM; in assay [3], 0.23 nM.

As to `CN(CCOc1ccccc1Cl)C1CCN(C(=O)Cn2cc(NC(=O)c3cnn4cccnc34)c(-c3cc(Cl)ccc3OC(F)F)n2)CC1` [Example 106, N-[3-[5-chloro-2-(difluoromethoxy)phenyl]-1-[2-[4-[2-(2-chlorophenoxy)ethyl-methyl-amino]-1-piperidyl]-2-oxo-ethyl]pyrazol-4-yl]pyrazolo[1,5-a]pyrimidine-3-carboxamide], in assay [1], the EC50 stood at 15.5 nM. The figures for the Ki in assay [2] and in assay [3] were 1.09 nM and 2.29 nM, respectively.

In the case of `NC(=O)CCCN1CCC(n2cc(NC(=O)c3cnn4cccnc34)c(-c3cc(Cl)ccc3OC(F)F)n2)CC1` [Example 170, N-[1-[1-(4-amino-4-oxo-butyl)-4-piperidyl]-3-[5-chloro-2-(difluoromethoxy)phenyl]pyrazol-4-yl]pyrazolo[1,5-a]pyrimidine-3-carboxamide], in assay [1], the EC50 was found to be 11.4 nM. Besides, the inhibition constant Ki turned out to be 1.67 nM in assay [2] and 0.25 nM in assay [3].

For `CC(=O)N1CCC(CN2CCC(n3cc(NC(=O)c4c(N)nn5cccnc45)c(-c4cc(Cl)ccc4OC(F)F)n3)CC2)CC1` [Example 173, N-[1-[1-[(1-acetyl-4-piperidyl)methyl]-4-piperidyl]-3-[5-chloro-2-(difluoromethoxy)phenyl]pyrazol-4-yl]-2-amino-pyrazolo[1,5-a]pyrimidine-3-carboxamide], the EC50 in assay [1] was 4.8 nM. Besides, the Ki amounted to 0.58 nM in assay [2] and 0.13 nM in assay [3].

With `CN(C)C[C@@H]1CCCN1C(=O)Cn1cc(NC(=O)c2c(N)nn3cccnc23)c(-c2cc(Cl)ccc2OC(F)F)n1` [Example 79, 2-amino-N-[3-[5-chloro-2-(difluoromethoxy)phenyl]-1-[2-[(2S)-2-[(dimethylamino)methyl]pyrrolidin-1-yl]-2-oxo-ethyl]pyrazol-4-yl]pyrazolo[1,5-a]pyrimidine-3-carboxamide], in assay [1], the EC50 came out at 158 nM. The Ki in assay [2] was 4.54 nM; in assay [3] it was 2.11 nM.

In the case of `Nc1nn2cccnc2c1C(=O)Nc1cn(C2CCN(CCCN3CCN(Cc4ccccc4)C3=O)CC2)nc1-c1cc(Cl)ccc1OC(F)F` [Example 166, 2-amino-N-[1-[1-[3-(3-benzyl-2-oxo-imidazolidin-1-yl)propyl]-4-piperidyl]-3-[5-chloro-2-(difluoromethoxy)phenyl]pyrazol-4-yl]pyrazolo[1,5-a]pyrimidine-3-carboxamide], the EC50 in assay [1] turned out to be 22.9 nM. Moreover, the Ki in assay [2] worked out at 0.91 nM; in assay [3], 0.26 nM.

Regarding `Nc1nn2cccnc2c1C(=O)Nc1cn(CC(=O)N2CCC(CO)CC2)nc1-c1cc(Cl)ccc1OC(F)F` [Example 266, 2-amino-N-[3-[5-chloro-2-(difluoromethoxy)phenyl]-1-[2-[4-(hydroxymethyl)-1-piperidyl]-2-oxo-ethyl]pyrazol-4-yl]pyrazolo[1,5-a]pyrimidine-3-carboxamide], the EC50 in assay [1] came to 5.9 nM. Also, the values for the Ki in assay [2] and in assay [3] were 0.24 nM and 0.1 nM, respectively.

On to `CN(CCO)C1CCN(C(=O)Cn2cc(NC(=O)c3c(N)nn4cccnc34)c(-c3cc(Cl)ccc3OC(F)F)n2)CC1` [Example 140, 2-amino-N-[3-[5-chloro-2-(difluoromethoxy)phenyl]-1-[2-[4-[2-hydroxyethyl(methyl)amino]-1-piperidyl]-2-oxo-ethyl]pyrazol-4-yl]pyrazolo[1,5-a]pyrimidine-3-carboxamide], for which the EC50 in assay [1] was 29.3 nM. The inhibition constant (Ki) is 0.46 nM in assay [2] and 0.39 nM in assay [3].

On to `Nc1nn2cccnc2c1C(=O)Nc1cn(C2CCN(Cc3ccccc3)CC2)nc1-c1cc(Cl)ccc1OC(F)F` [Example 178, 2-amino-N-[1-(1-benzyl-4-piperidyl)-3-[5-chloro-2-(difluoromethoxy)phenyl]pyrazol-4-yl]pyrazolo[1,5-a]pyrimidine-3-carboxamide], for which, in assay [1], the EC50 turned out to be 83.9 nM. The Ki in assay [2] worked out at 1.23 nM; in assay [3], 0.43 nM.

With `CC(=O)N1CCC(CN2C[C@@H]3CN(C(=O)Cn4cc(NC(=O)c5cnn6cccnc56)c(-c5cc(Cl)ccc5OC(F)F)n4)C[C@@H]3C2)CC1` [Example 22, N-[1-[2-[(3aS,6aR)-2-[(1-acetyl-4-piperidyl)methyl]-1,3,3a,4,6,6a-hexahydropyrrolo[3,4-c]pyrrol-5-yl]-2-oxo-ethyl]-3-[5-chloro-2-(difluoromethoxy)phenyl]pyrazol-4-yl]pyrazolo[1,5-a]pyrimidine-3-carboxamide], the EC50 in assay [1] amounted to 158 nM. For the same compound, the inhibition constant Ki came out at 0.94 nM in assay [2] and 0.95 nM in assay [3].

Take `CN1C[C@@H]2CN(C(=O)c3nc(-c4cc(Cl)ccc4OC(F)F)c(NC(=O)c4cnn5cccnc45)s3)C[C@@H]2C1` [Example 264, Pyrazolo[1,5-a]pyrimidine-3-carboxylic acid [4-(5-chloro-2-difluoromethoxy-phenyl)-2-(5-methyl-hexahydro-pyrrolo[3,4-c]pyrrole-2-carbonyl)-thiazol-5-yl]-amide]: the EC50 in assay [1] was determined as 19.8 nM. The Ki in assay [2] was 2.69 nM; in assay [3], 2.38 nM.

In the case of `CCCCOc1ccc(CN(C)C2CCN(C(=O)Cn3cc(NC(=O)c4cnn5cccnc45)c(-c4cc(Cl)ccc4OC(F)F)n3)CC2)cc1` [Example 127, N-[1-[2-[4-[(4-butoxyphenyl)methyl-methyl-amino]-1-piperidyl]-2-oxo-ethyl]-3-[5-chloro-2-(difluoromethoxy)phenyl]pyrazol-4-yl]pyrazolo[1,5-a]pyrimidine-3-carboxamide], the EC50 in assay [1] turned out to be 72.4 nM. Besides, the Ki in assay [2] is 0.78 nM; in assay [3], 2.44 nM.

Turning to `CN1CCC2(CCN(C(=O)Cn3cc(NC(=O)c4cnn5cccnc45)c(-c4cc(Cl)ccc4OC(F)F)n3)C2)C1` (stereo not drawn) [Example 212, N-[3-[5-chloro-2-(difluoromethoxy)phenyl]-1-[2-(7-methyl-2,7-diazaspiro[4.4]nonan-2-yl)-2-oxo-ethyl]pyrazol-4-yl]pyrazolo[1,5-a]pyrimidine-3-carboxamide], in assay [1], the EC50 is 30.6 nM. Moreover, the inhibition constant Ki in assay [2] was 0.91 nM; in assay [3], 1.93 nM.

With `CN(CCc1ccc(O)cc1)C1CCN(C(=O)Cn2cc(NC(=O)c3cnn4cccnc34)c(-c3cc(Cl)ccc3OC(F)F)n2)CC1` [Example 90, N-[3-[5-chloro-2-(difluoromethoxy)phenyl]-1-[2-[4-[2-(4-hydroxyphenyl)ethyl-methyl-amino]-1-piperidyl]-2-oxo-ethyl]pyrazol-4-yl]pyrazolo[1,5-a]pyrimidine-3-carboxamide], the EC50 in assay [1] is 23.3 nM. Moreover, the values for the Ki in assay [2] and in assay [3] were 0.95 nM and 1.31 nM, respectively.

With `CN(C)C1CCN(C(=O)Cn2cc(NC(=O)c3c(N)nn4cccnc34)c(-c3cc(Cl)ccc3OC(F)F)n2)C1` (stereo not drawn) [Example 136, 2-amino-N-[3-[5-chloro-2-(difluoromethoxy)phenyl]-1-[2-[3-(dimethylamino)pyrrolidin-1-yl]-2-oxo-ethyl]pyrazol-4-yl]pyrazolo[1,5-a]pyrimidine-3-carboxamide], the EC50 in assay [1] was determined as 36.7 nM. Moreover, the values for the inhibition constant Ki in assay [2] and in assay [3] were 0.64 nM and 0.25 nM, respectively.
